In this assay the test system is Rattus norvegicus. In words: Effective dose required to inhibit sorbitol accumulation in sciatic nerves of streptozotocinized rats administered perorally. The assay is classed as functional, Sciatic nerve.

`O=C1NC(=O)[C@@]2(CCOc3ccc(F)cc32)N1` (stereo in doubt; form 1) [SORBINIL] showed an ED50 of 0.25 mg/kg.

On to `O=C1NC(=O)[C@@]2(CCOc3ccc(F)cc32)N1` (stereo in doubt; form 2) [SORBINIL], for which the ED50 worked out at 25 mg/kg.

For orientation: ED50 means the midpoint of the dose-response relation. A low value points to greater potency.

(Values after ChEMBL document CHEMBL1123138 (J Med Chem, 1985).)
